Entries after “also recorded” stand apart in the source; their conditions may differ.
Assays:
[1] = target: T1, Aβ1-42 (Homo sapiens, UniProt P05067); experiment: Electron microscopy of fibril formation from Aβ1-42 in the presence of ligands; type: biochemical; conditions: Aβ1-42 5 μM with 5 or 25 μM ligand, 37° C., 9 hours
T1 construct: Samples of Aβ1-42 peptide (5 μM) alone or mixed with 5 or 25 μM of each ligand
Procedure: Samples of Aβ1-42 peptide (5 μM) alone or mixed with 5 or 25 μM of each ligand in a volume of 100 μl, were incubated at 37° C. for 9 hours. Aliquotes of 2 μl were taken from the different samples, adsorbed on copper grids and negatively stained with 2.5% uranyl acetate in 50% ethanol. The samples were examined and photographed using a Hitachi H7100 microscope operated at 75 kV.

[2] = test system: kainate-induced gamma oscillations; experiment: Control: ligands alone on kainate-induced gamma oscillations in hippocampal slices (absence of Aβ); type: cell-based, C57BL/6 mice
Procedure: (§1) Experiments were carried out in accordance with ethical permit granted by Norra Stockholms Djurförsöksetiska Nämnd to AF (N45/13). C57BL/6 mice of either sex (postnatal days 14-23, supplied from Charles River, Germany) were used in all experiments. The animals were deeply anaesthetized using isofluorane before being sacrificed by decapitation.
(§2) The brain was dissected out and placed in ice-cold ACSF (artificial cerebrospinal fluid) modified for dissection. This solution contained (in mM); 80 NaCl, 24 NaHCO3, 25 Glucose, 1.25 NaH2PO4, 1 Ascorbic acid, 3 NaPyruvate, 2.5 KCl, 4 MgCl2, 0.5 CaCl2, 75 Sucrose. Horizontal sections (350 μm thick) of the ventral hippocampi of both hemispheres were prepared with a Leica VT1200S vibratome (Microsystems, Stockholm, Sweden). Immediately after slicing sections were transferred to a submerged incubation chamber containing standard ACSF (in mM): 124 NaCl, 30 NaHCO3, 10 Glucose, 1.25 NaH2PO4, 3.5 KCl, 1.5 MgCl2, 1.5 CaCl2. The chamber was held at 34° C. for at least 20 minutes after dissection. It was subsequently allowed to cool to ambient room temperature (19-22° C.) for a minimum of 40 minutes. Peptides were added to the incubation solution 15 minutes before transferring slices to the interface-style recording chamber. While incubating slices were continuously supplied with carbogen gas (5% CO2, 95% O2) bubbled into the ACSF. Chemical compounds used in intracellular and extracellular solutions were obtained from Sigma-Aldrich Sweden AB (Stockholm, Sweden). The Kainic acid was obtained from Tocris.
(§3) Recordings were carried out in hippocampal area CA3 with borosilicate glass microelectrodes, pulled to a resistance of 3-7 MO. Local field potentials (LFP) were recorded at 34° C. using microelectrodes filled with ACSF placed in stratum pyramidale. LFP oscillations were elicited by applying kainic acid (100 nM) to the extracellular bath. The oscillations were allowed to stabilize for 20 minutes before any recordings were carried out. LFP recordings were performed with a 4 channel amplifier/signal conditioner M102-amplifier (Electronics lab, Faculty of Mathematics and Natural Sciences, University of Cologne, Cologne, Germany). The signals were sampled at 10 kHz, conditioned using a Hum Bug 50 Hz noise eliminator (Quest Scientific, North Vancouver, BC, Canada), software low-pass filtered at 1 kHz, digitized and stored using a Digidata 1322A and Clampex 9.6 software (Molecular devices, CA, USA).
(§4) Power spectral density plots (from 60 s long LFP recordings) were calculated in averaged Fourier-segments of 8192 points using Axograph X (Kagi, Berkeley, Calif., USA). Oscillation power was calculated by integrating the power spectral density between 20 and 80 Hz. Data is reported as means±standard errors of the means in the text and as median and upper/lower quartile in the figure box plots. For statistical analysis the Mann-Whitney U-test was used.

[3] = target: T1, Aβ1-42; experiment: Prevention of Aβ-induced decrease of kainate-induced gamma oscillations in hippocampal slices (LFP, area CA3); type: cell-based, C57BL/6 mice
Procedure: as §1, §2, §3, §4

[4] = 50 nM ligand, equimolar (1:1) to 50 nM Aβ1-42, 15 min incubation
[5] = 250 nM ligand with 50 nM Aβ, 15 min incubation

T1 sequence (P05067 672-713 limits assumed): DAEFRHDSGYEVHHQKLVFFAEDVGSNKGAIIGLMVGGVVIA

CCCCCCCC[C@H](N)CNCC[C@H](N)C(=O)N[C@H](CCN1C(=O)c2cccc3c(N(C)C)ccc(c23)C1=O)C(=O)NCC[C@@H](NC(=O)CCCC(=O)O)C(=O)O [8AEDabDmnDabGla, HO-Gla-D-Dab-(COOH)-D-DMNA-L-Dap-(NH2)—CH2CH(NH2)—C8]
fibril formation by Aβ1-42 (electron microscopy) [1]: less fibrils

CCCCCCCCCC(=O)NCCNC[C@H](N)C(=O)N[C@H](Cc1c[nH]c2ccccc12)C(=O)NCC[C@@H](NC(=O)CCCC(=O)O)C(=O)O [DH18, (R)—N^4—[N^2—(N^3—(N-decanoyl-2-aminoethyl)-(S)-2,3-diaminopropionyl)-D-tryptophanyl]-N^2-glutanoyl-2,4-diaminobutanoic acid]
effect of ligand alone on kainate-induced gamma oscillations [2]: no effect

CCCCCCCCCC(=O)NCCNC[C@H](N)C(=O)N[C@H](CCN1C(=O)c2cccc3c(N(C)C)ccc(c23)C1=O)C(=O)NCC[C@@H](NC(=O)CCCC(=O)O)C(=O)O [DH18_Dmn, HO-Gla-D-Dab-(COOH)-D-DMNA-L-Dap-(NH2)-AE-decanoyl]
effectiveness in preventing Aβ-induced degradation of network gamma oscillations compared with first generation ligands [3]: more effective than first generation ligands | prevention of the Aβ-induced decrease of kainate-induced gamma oscillations [3, 4]: complete prevention; also recorded: effective also at only a 1:1 ratio; also recorded: reverse Aβ-induced reduction of gamma oscillation; also recorded: prevention of Aβ-induced degradation of network gamma oscillations | effect of ligand alone on kainate-induced gamma oscillations [2]: neither of these ligands had an effect | fibril formation by Aβ1-42 (electron microscopy) [1]: less fibrils

NC(=O)CCCCCCCCCCC(=O)NCCNC[C@H](N)C(=O)N[C@H](Cc1c[nH]c2ccccc12)C(=O)NCC[C@@H](NC(=O)CCCC(=O)O)C(=O)O [DH20, (R)—N^4—[N^2—(N^3—(N-(12-amino-12-oxododecanoyl)-2-aminoethyl)-(S)-2,3-diaminopropionyl)-D-tryptophanyl]-N^2-glutanoyl-2,4-diaminobutanoic acid]
effectiveness in preventing Aβ-induced degradation of network gamma oscillations compared with first generation ligands [3]: more effective than first generation ligands | prevention of the Aβ-induced decrease of kainate-induced gamma oscillations [3, 4]: complete prevention | prevention of the Aβ-induced decrease of kainate-induced gamma oscillations ([3]; 50 nM ligand, equimolar (1:1) to 50 nM Aβ1-42, 15 min incubation, listed as DH-20): effective also at only a 1:1 ratio; also recorded: reverse Aβ-induced reduction of gamma oscillation | prevention of the Aβ-induced decrease of kainate-induced gamma oscillations [3, 5]: complete prevention; also recorded: reverses Aβ-induced reduction of gamma oscillation | effect of ligand alone on kainate-induced gamma oscillations [2]: neither of these ligands had an effect; also recorded: no effect | fibril formation by Aβ1-42 (electron microscopy) [1]: less fibrils

CCCCCCCCCC(=O)NCCNCCN [Dec-DETA, reference compound]
prevention of the Aβ-induced decrease of kainate-induced gamma oscillations [3, 5]: higher prevention | effect of ligand alone on kainate-induced gamma oscillations [2]: neither of these ligands had an effect

N=C(N)CCNCCCC(N)C(=O)NC(Cc1c[nH]c2ccccc12)C(=O)NCCC(NC(=O)CCCC(=O)O)C(=O)O (centres unmarked) [Pep1b, reference compound]
prevention of the Aβ-induced decrease of kainate-induced gamma oscillations [3, 5]: only partial prevention | effect of ligand alone on kainate-induced gamma oscillations [2]: neither of these ligands had an effect | fibril formation by Aβ1-42 (electron microscopy) [1]: fibrils were formed but to somewhat lesser extent

— patent US10023610B2, “Ligands for prevention of neurotoxicity of the alzheimer's disease related amyloid-beta peptide” (AlphaBeta AB, priority 2014, dated 2018)
